Source: ChEMBL document CHEMBL4387741, “Optimization of novel reversible Bruton's tyrosine kinase inhibitors identified using Tethering-fragment-based screens” (Bioorg Med Chem, 2019)

What was measured:
[1] = biological target: Calcium/calmodulin-dependent protein kinase kinase 1 (Homo sapiens) (UniProt Q8N5S9); assay: Inhibition of wild-type human partial length CAMKK1 (R65 to E414 residues) expressed in bacterial expression system at 1 uM by Kinomescan method relative to control
[2] = biological target: Ribosomal protein S6 kinase alpha-6 (Homo sapiens) (UniProt Q9UK32); assay: Inhibition of wild-type human partial length N-terminal RSK4 kinase domain 1 (M1 to E397 residues) expressed in mammalian expression system at 1 uM by Kinomescan method relative to control
[3] = biological target: Activin receptor type-2A (Homo sapiens) (UniProt P27037); assay: Inhibition of wild-type human ACVR2A (V171 to T499 residues) expressed in bacterial expression system at 1 uM by Kinomescan method relative to control
[4] = biological target: Aurora kinase A (Homo sapiens) (UniProt O14965); assay: Inhibition of wild-type human partial length AURKA (E122 to K401 residues) expressed in mammalian expression system at 1 uM by Kinomescan method relative to control
[5] = biological target: Dual specificity mitogen-activated protein kinase kinase 4 (Homo sapiens) (UniProt P45985); assay: Inhibition of wild-type human partial length MEK4 (S84 to D399 residues) expressed in mammalian expression system at 1 uM by Kinomescan method relative to control
Dual specificity mitogen-activated protein kinase kinase 4 (Homo sapiens), sequence (P45985 whole entry, the tested form may be a part): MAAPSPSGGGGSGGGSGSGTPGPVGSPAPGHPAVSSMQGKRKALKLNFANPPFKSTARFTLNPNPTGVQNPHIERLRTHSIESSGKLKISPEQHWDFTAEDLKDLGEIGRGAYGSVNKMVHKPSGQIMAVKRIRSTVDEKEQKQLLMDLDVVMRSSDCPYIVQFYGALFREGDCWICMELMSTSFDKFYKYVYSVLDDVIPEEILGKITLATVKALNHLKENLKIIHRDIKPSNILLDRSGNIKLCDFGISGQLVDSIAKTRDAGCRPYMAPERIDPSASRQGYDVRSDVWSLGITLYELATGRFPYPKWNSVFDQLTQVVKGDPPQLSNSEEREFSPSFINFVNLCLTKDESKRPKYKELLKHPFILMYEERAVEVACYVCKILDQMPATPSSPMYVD

[6] = biological target: Serine/threonine-protein kinase Chk2 (Homo sapiens) (UniProt O96017); assay: Inhibition of wild-type human partial length CHEK2 (S253 to E574 residues) expressed in bacterial expression system at 1 uM by Kinomescan method relative to control
Serine/threonine-protein kinase Chk2 (Homo sapiens), sequence (O96017 whole entry, the tested form may be a part): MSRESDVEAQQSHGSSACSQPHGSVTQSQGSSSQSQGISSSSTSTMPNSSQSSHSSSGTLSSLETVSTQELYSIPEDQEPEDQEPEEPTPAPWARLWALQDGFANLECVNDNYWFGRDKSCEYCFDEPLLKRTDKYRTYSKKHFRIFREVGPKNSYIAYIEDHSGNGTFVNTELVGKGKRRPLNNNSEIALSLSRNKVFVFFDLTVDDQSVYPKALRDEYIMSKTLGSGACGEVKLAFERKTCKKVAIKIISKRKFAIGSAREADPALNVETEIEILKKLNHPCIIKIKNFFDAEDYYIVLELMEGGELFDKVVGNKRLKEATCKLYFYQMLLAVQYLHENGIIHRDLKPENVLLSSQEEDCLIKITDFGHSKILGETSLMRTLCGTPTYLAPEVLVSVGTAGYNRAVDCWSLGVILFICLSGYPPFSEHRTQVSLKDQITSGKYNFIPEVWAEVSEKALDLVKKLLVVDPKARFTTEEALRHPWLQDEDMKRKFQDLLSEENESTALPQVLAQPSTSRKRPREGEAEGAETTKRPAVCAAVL

[7] = biological target: Tyrosine-protein kinase JAK1 (Homo sapiens) (UniProt P23458); assay: Inhibition of wild-type human partial length JAK1 JH1 catalytic domain (V856 to K1154 residues) expressed in bacterial expression system at 1 uM by Kinomescan method relative to control
[8] = biological target: Serine/threonine-protein kinase B-raf (Homo sapiens) (UniProt P15056); assay: Inhibition of wild-type human partial length BRAF (S429 to E741 residues) expressed in mammalian expression system at 1 uM by Kinomescan method relative to control
[9] = biological target: MAP/microtubule affinity-regulating kinase 3 (Homo sapiens) (UniProt P27448); assay: Inhibition of wild-type human full length MARK3 (M1 to L729 residues) expressed in bacterial expression system at 1 uM by Kinomescan method relative to control
[10] = biological target: Serine/threonine-protein kinase VRK2 (Homo sapiens) (UniProt Q86Y07); assay: Inhibition of wild-type human partial length VRK2 (M1 to T336 residues) expressed in mammalian expression system at 1 uM by Kinomescan method relative to control
[11] = biological target: Epidermal growth factor receptor (Homo sapiens) (UniProt P00533); assay: Inhibition of wild-type human partial length EGFR (R669 to V1011 residues) expressed in bacterial expression system at 1 uM by Kinomescan method relative to control
[12] = system: Phosphatidylinositol 4,5-bisphosphate 3-kinase catalytic subunit alpha isoform (Homo sapiens), P42336 [Q546K]; assay: Inhibition of human partial length PIK3CA Q546K mutant (R108 to N1068 residues) expressed in mammalian expression system at 1 uM by Kinomescan method relative to control
[13] = system: Tyrosine-protein kinase ABL1 (Homo sapiens), P00519 [F317I]; assay: Inhibition of human non-phosphorylated ABL1 F317I mutant (S229 to K512 residues) expressed in mammalian expression system at 1 uM by Kinomescan method relative to control
[14] = biological target: Myosin light chain kinase family member 4 (Homo sapiens) (UniProt Q86YV6); assay: Inhibition of wild-type human partial length MYLK4 (V79 to S380 residues) expressed in bacterial expression system at 10 uM by Kinomescan method relative to control
Myosin light chain kinase family member 4 (Homo sapiens), sequence (Q86YV6 whole entry, the tested form may be a part): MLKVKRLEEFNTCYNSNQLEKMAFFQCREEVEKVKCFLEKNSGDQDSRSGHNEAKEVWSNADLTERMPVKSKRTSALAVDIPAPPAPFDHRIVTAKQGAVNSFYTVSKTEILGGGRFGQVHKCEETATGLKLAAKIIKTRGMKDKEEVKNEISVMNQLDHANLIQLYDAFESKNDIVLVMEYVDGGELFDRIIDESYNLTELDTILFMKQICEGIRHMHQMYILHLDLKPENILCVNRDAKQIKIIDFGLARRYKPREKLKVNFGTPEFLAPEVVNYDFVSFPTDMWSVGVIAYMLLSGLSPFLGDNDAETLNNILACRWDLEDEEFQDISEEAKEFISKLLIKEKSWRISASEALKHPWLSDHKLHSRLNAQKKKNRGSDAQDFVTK

[15] = biological target: Proto-oncogene tyrosine-protein kinase Src (Homo sapiens) (UniProt P12931); assay: Inhibition of wild-type human partial length SRC (L240 to L536 residues) expressed in bacterial expression system at 10 uM by Kinomescan method relative to control
[16] = biological target: Cyclin-dependent kinase 4/cyclin D1 (Homo sapiens) (UniProt P11802+P24385); assay: Inhibition of wild-type human full length CDK4/cyclinD1 (M1 to E303 residues) expressed in mammalian expression system at 10 uM by Kinomescan method relative to control
[17] = biological target: Tyrosine-protein kinase ABL2 (Homo sapiens) (UniProt P42684); assay: Inhibition of wild-type human ABL2 (A248 to G542 residues) expressed in bacterial expression system at 10 uM by Kinomescan method relative to control
[18] = biological target: Aurora kinase C (Homo sapiens) (UniProt Q9UQB9); assay: Inhibition of wild-type human full length AURKC (M1 to S275 residues) expressed in bacterial expression system at 10 uM by Kinomescan method relative to control
[19] = biological target: Calcium-dependent protein kinase 1 (Plasmodium falciparum) (UniProt P62344); assay: Inhibition of wild-type Plasmodium falciparum full length CDPK1 (M1 to S524 residues) expressed in mammalian expression system at 10 uM by Kinomescan method relative to control
[20] = biological target: Mitogen-activated protein kinase kinase kinase 9 (Homo sapiens) (UniProt P80192); assay: Inhibition of wild-type human partial length MLK1 (V88 to W426 residues) expressed in bacterial expression system at 10 uM by Kinomescan method relative to control
Mitogen-activated protein kinase kinase kinase 9 (Homo sapiens), sequence (P80192 whole entry, looked up, the tested form may be a part): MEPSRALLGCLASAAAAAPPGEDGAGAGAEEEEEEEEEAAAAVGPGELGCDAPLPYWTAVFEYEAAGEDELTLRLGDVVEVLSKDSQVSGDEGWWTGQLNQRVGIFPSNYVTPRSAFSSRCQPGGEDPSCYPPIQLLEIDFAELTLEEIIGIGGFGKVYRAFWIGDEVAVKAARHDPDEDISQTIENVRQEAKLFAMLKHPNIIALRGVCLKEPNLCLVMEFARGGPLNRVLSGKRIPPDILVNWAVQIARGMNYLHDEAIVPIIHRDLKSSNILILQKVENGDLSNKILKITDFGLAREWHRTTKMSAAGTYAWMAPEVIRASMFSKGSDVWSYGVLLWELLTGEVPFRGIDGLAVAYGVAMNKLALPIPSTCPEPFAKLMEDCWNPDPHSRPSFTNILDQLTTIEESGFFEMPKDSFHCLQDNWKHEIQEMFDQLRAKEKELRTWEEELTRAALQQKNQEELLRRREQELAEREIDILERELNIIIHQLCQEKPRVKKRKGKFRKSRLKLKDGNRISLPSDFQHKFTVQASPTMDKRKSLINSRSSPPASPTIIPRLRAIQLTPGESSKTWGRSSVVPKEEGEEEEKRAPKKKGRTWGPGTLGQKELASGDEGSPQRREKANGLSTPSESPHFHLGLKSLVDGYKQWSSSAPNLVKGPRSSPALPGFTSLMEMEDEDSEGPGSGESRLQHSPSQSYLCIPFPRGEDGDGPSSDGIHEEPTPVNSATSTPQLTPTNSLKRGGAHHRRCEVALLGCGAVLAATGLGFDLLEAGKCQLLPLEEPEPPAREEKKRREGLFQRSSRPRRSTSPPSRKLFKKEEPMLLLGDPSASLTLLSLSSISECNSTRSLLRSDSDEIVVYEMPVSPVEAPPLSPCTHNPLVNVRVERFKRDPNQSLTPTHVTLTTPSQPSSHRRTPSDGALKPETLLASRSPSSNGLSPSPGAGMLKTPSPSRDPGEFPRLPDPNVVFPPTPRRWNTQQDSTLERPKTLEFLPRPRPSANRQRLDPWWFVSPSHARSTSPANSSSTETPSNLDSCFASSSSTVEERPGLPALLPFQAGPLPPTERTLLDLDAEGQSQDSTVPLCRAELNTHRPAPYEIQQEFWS

[21] = biological target: Serine/threonine-protein kinase pim-3 (Homo sapiens) (UniProt Q86V86); assay: Inhibition of wild-type human partial length PIM3 (G16 to A317 residues) expressed in bacterial expression system at 10 uM by Kinomescan method relative to control
[22] = biological target: Cyclin-dependent kinase 13 (Homo sapiens) (UniProt Q14004); assay: Inhibition of wild-type human partial length CDC2L5 (H675 to S1054 residues) expressed in mammalian expression system at 10 uM by Kinomescan method relative to control
[23] = biological target: RAC-beta serine/threonine-protein kinase (Homo sapiens) (UniProt P31751); assay: Inhibition of wild-type human partial length AKT2 expressed in bacterial expression system at 10 uM by Kinomescan method relative to control
RAC-beta serine/threonine-protein kinase (Homo sapiens), sequence (P31751 whole entry, the tested form may be a part): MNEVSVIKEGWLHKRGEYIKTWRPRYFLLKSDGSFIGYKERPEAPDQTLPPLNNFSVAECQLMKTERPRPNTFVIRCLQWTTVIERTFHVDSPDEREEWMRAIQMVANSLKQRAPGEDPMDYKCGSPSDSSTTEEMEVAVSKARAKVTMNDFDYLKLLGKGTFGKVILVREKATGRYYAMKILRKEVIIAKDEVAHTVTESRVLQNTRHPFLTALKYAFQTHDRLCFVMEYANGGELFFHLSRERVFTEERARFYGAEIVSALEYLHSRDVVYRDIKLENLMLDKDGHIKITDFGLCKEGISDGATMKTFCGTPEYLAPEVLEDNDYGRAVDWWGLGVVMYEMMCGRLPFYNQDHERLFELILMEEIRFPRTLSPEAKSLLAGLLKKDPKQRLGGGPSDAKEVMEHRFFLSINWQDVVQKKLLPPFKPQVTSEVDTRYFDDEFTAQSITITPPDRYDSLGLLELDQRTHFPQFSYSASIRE

[24] = biological target: Serine/threonine-protein kinase Sgk1 (Homo sapiens) (UniProt O00141); assay: Inhibition of wild-type human partial length SGK (I60 to L431 residues) expressed in mammalian expression system at 10 uM by Kinomescan method relative to control
Serine/threonine-protein kinase Sgk1 (Homo sapiens), sequence (O00141 whole entry, the tested form may be a part): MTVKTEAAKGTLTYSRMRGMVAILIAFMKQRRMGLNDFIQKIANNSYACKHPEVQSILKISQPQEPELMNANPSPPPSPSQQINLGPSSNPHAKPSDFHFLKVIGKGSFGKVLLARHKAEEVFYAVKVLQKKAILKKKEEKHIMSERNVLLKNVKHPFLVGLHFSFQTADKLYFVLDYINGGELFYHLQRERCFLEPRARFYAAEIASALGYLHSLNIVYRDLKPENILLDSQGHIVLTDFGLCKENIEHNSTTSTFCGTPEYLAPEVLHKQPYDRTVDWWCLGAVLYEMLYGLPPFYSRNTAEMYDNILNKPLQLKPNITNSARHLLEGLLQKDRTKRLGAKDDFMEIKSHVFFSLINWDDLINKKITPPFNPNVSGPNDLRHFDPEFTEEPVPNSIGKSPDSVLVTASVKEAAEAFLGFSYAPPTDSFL

[25] = biological target: Tyrosine-protein kinase JAK2 (Homo sapiens) (UniProt O60674); assay: Inhibition of wild-type human partial length JAK2 JH1 catalytic domain (A829 to G1132 residues) expressed in mammalian expression system at 10 uM by Kinomescan method relative to control
Tyrosine-protein kinase JAK2 (Homo sapiens), sequence (O60674 whole entry, the tested form may be a part): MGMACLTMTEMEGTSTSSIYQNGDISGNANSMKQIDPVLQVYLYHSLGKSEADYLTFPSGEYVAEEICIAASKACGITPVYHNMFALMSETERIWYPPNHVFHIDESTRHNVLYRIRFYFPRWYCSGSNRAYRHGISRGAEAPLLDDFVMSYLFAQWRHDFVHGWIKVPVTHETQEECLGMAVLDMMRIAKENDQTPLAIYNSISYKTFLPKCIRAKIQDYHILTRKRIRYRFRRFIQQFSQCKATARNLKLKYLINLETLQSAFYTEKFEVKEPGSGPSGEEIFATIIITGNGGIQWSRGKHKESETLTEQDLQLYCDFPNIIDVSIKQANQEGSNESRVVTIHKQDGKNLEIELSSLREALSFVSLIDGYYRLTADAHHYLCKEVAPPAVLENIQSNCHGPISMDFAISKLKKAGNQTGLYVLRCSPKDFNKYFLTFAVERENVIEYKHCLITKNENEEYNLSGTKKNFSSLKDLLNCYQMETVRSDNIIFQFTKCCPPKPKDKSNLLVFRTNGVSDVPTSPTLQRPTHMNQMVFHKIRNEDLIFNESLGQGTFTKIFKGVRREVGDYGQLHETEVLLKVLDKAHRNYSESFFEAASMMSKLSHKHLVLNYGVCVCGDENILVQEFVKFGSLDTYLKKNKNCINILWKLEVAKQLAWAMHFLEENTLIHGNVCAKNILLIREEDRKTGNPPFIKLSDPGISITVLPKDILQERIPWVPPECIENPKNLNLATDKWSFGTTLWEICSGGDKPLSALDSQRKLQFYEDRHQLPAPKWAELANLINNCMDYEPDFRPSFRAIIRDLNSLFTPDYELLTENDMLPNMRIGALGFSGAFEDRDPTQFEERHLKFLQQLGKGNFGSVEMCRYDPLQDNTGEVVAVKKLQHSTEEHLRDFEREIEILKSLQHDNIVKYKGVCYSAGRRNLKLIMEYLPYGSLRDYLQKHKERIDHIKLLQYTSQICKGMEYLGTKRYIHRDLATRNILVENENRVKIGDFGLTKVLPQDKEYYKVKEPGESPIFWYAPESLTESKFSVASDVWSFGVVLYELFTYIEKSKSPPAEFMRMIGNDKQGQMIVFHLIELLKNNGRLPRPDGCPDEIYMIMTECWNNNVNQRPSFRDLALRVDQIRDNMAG

[26] = biological target: Fibroblast growth factor receptor 2 (Homo sapiens) (UniProt P21802); assay: Inhibition of wild-type human partial length FGFR2 (D457 to E769 residues) expressed in bacterial expression system at 10 uM by Kinomescan method relative to control
[27] = biological target: Cyclin-dependent kinase 3 (Homo sapiens) (UniProt Q00526); assay: Inhibition of wild-type human full length CDK3 (M1 to H305 residues) expressed in bacterial expression system at 10 uM by Kinomescan method relative to control
Cyclin-dependent kinase 3 (Homo sapiens), sequence (Q00526 whole entry, looked up, the tested form may be a part): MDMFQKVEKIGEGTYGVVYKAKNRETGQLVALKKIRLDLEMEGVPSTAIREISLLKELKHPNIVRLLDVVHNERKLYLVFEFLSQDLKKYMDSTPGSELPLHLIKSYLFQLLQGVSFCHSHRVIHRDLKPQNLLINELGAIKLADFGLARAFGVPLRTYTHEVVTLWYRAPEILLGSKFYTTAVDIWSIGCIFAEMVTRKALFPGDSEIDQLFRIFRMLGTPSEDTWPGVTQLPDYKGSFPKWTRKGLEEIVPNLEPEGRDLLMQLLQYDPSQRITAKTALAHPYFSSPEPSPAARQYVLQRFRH

O=C(Nc1cccc([C@@H]2CN(c3ncnc4[nH]ccc34)CCN2CCO)c1)Nc1c(F)cccc1N1CCCC1
inhibition [1]: 100%
inhibition [2]: 89%
inhibition [3]: 100%
inhibition [4]: 3.6%
inhibition [5]: 7.2%
inhibition [6]: 69%
inhibition [7]: 17%
inhibition [8]: 86%
inhibition [9]: 100%
inhibition [10]: 100%
inhibition [11]: 100%
inhibition [12]: 89%
inhibition [13]: 100%

O=C(Nc1cccc([C@H]2CCCN(c3ncnc4[nH]ccc34)C2)c1)Nc1ccccc1N1CCCC1
inhibition [14]: 2.6%
inhibition [15]: 80%
inhibition [16]: 74%
inhibition [17]: 89%
inhibition [18]: 4.3%
inhibition [19]: 9.9%
inhibition [20]: 59%
inhibition [21]: 89%
inhibition [22]: 97%
inhibition [23]: 100%
inhibition [24]: 26%
inhibition [25]: 0%
inhibition [26]: 24%
inhibition [27]: 86%
